# Laboratory results from US20120220564A1, “SELECTIVE CALCIUM CHANNEL MODULATORS” (Zalicus Pharmaceuticals Ltd., priority 2009, published 2012).
# Assays:
# α1H (CaV 3.2) = target: T1, α1H (CaV 3.2) (Homo sapiens, UniProt O95180); assay: T-type calcium channel block, whole cell patch clamp; assay type: cell-based; conditions: HEK cells, mainly non-inactivated protocol; values above 10,000 nM represented as 10000
# T1 construct: expressed in transfected cells; host or cells: HEK 293
# Description: (§1) T-type calcium channel blocking activity was assayed in human embryonic kidney cells, HEK 293 (Invitrogen), stably transfected with the T-type calcium channel subunits. Briefly, cells were cultured in Dulbecco's modified eagle medium (DMEM) supplemented with 10% fetal bovine serum, 200 U/ml penicillin, and 0.2 mg/mL streptomycin at 37° C. with 5% CO2. At 85% confluency, cells were split with 0.25% trypsin/1 mM EDTA and plated at 10% confluency on glass coverslips. At 12 hours, the medium was replaced, and the cells stably transfected using a standard calcium phosphate protocol and the appropriate calcium channel cDNA's. Fresh DMEM was supplied, and the cells transferred to 28° C./5% CO2. Cells were incubated for 1 to 2 days prior to whole cell recording.
# (§2) Standard patch-clamp techniques were employed to identify blockers of T-type currents. Briefly, previously described HEK cell lines stably expressing human α1G, α1H and α1I T-type channels were used for all the recordings (passage #: 4-20, 37° C., 5% CO2). Whole cell patch clamp experiments were performed using an Axopatch 200B amplifier (Axon Instruments, Burlingame, Calif.) linked to a personal computer equipped with pCLAMP software. Data were analyzed using Clampfit (Axon Instruments) and SigmaPlot 4.0 (Jandel Scientific). To obtain T-type currents, plastic dishes containing semi-confluent cells were positioned on the stage of a ZEISS AXIOVERT S100 microscope after replacing the culture medium with external solution (Table 2). Whole-cell patches were obtained using pipettes (borosilicate glass with filament, O.D.: 1.5 mm, I.D.: 0.86 mm, 10 cm length), fabricated on a SUTTER P-97 puller with resistance values of ˜5 MΩ (Table 3).
# (§3) T-type currents were reliably obtained by using two voltage protocols:
# (§4) In the non-inactivating protocol, the holding potential is set at −110 mV and with a pre-pulse at −100 mV for 1 second prior to the test pulse at −40 mV for 50 ms. In the inactivation protocol, the pre-pulse is at approximately −85 mV for 1 second, which inactivates about 15% of the T-type channels (Scheme 1).
# (§5) Test compounds were dissolved in external solution, 0.1-0.01% DMSO. After ˜10 minutes rest, they were applied by gravity close to the cell using a WPI microfil tubing. The “non-inactivated” pre-pulse was used to examine the resting block of a compound. The “inactivated” protocol was employed to study voltage-dependent block. However, the initial data shown below were mainly obtained using the non-inactivated protocol only. IC50 values are shown for various compounds of the invention in Table 4. […] In Table 4, empty cells indicate that inhibition by the compound was not detected.
# α1G (CaV 3.1) = target: T2, α1G (CaV 3.1) (Homo sapiens, UniProt O43497); assay: as above; assay type: cell-based; conditions: HEK cells, mainly non-inactivated protocol; values above 10,000 nM represented as 10000
# T2 construct: expressed in transfected cells; host or cells: HEK 293
# T2 sequence (O43497 whole entry): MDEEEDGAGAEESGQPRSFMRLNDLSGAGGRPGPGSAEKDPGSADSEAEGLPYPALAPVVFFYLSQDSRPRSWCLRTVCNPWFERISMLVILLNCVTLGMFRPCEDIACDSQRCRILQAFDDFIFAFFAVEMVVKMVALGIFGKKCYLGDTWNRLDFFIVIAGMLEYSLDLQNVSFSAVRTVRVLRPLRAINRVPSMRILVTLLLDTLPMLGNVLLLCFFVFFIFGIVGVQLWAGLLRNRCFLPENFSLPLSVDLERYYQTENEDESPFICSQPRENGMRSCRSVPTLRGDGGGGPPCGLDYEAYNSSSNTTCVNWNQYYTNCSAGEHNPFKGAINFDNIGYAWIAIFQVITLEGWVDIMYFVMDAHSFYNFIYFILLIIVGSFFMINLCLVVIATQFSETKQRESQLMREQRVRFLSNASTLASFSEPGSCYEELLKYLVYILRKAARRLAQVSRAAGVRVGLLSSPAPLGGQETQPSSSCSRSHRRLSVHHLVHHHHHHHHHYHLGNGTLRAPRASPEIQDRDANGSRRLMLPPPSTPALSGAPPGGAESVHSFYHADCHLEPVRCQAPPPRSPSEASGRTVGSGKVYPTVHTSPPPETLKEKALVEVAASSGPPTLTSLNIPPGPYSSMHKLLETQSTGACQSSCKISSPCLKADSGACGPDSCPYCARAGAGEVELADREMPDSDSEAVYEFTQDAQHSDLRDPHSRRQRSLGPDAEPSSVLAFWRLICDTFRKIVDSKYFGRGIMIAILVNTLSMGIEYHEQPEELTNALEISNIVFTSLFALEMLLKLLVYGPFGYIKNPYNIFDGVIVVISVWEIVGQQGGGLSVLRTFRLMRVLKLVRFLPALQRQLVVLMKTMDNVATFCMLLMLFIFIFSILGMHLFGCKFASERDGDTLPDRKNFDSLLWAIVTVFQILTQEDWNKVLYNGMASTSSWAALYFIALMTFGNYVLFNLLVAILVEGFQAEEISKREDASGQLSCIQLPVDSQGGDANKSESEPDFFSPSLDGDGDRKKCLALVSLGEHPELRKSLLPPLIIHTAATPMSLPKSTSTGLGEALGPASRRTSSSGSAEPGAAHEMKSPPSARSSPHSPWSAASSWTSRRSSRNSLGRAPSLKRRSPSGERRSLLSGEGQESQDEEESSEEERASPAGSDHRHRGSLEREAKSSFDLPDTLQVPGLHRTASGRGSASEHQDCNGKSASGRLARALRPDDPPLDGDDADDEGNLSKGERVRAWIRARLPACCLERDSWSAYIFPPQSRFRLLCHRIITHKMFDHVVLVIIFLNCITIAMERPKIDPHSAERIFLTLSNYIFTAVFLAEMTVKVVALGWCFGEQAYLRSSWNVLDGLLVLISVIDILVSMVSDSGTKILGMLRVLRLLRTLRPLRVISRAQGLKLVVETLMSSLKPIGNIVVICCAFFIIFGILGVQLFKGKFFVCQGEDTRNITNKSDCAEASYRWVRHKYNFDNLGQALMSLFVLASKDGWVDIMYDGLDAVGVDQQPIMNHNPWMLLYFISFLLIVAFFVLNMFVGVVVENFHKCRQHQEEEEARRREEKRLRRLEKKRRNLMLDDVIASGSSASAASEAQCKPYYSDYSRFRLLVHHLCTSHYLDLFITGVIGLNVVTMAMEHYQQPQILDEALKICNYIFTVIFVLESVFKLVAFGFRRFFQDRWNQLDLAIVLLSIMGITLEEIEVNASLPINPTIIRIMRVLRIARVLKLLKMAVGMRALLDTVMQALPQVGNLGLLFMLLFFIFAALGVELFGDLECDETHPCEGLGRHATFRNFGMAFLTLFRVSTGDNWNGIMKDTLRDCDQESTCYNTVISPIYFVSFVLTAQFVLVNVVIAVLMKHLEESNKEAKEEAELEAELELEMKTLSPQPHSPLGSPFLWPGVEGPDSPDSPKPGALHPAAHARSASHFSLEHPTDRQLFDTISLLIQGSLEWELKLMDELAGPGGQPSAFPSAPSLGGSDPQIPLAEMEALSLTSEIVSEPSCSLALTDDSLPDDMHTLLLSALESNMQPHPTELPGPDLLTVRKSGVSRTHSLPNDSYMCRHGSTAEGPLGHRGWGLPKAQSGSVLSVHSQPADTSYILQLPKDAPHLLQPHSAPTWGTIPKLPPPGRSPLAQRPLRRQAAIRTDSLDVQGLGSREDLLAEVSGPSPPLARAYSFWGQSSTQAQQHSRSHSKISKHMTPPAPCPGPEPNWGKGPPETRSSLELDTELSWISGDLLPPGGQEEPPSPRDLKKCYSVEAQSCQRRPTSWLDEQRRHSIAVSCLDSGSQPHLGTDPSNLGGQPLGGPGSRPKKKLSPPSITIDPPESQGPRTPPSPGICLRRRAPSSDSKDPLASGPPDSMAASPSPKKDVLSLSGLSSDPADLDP
# Description: as §1, §2, §3, §4, §5
# [1] = tested on: minimal muscular or neurological impairment (rotarod); assay: Mouse rotarod assay; assay type: in vivo, mice
# Description: To assess a compound's undesirable side effects (toxicity), animals can be monitored for overt signs of impaired neurological or muscular function. In mice, the rotarod procedure (Dunham and Miya, J. Am. Pharmacol. Assoc. 46:208-209 (1957)) is used to disclose minimal muscular or neurological impairment (MMI). When a mouse is placed on a rod that rotates at a speed of 6 rpm, the animal can maintain its equilibrium for long periods of time. The animal is considered toxic if it falls off this rotating rod three times during a 1-min period.
# 6 Hz psychomotor seizure = 6 Hz psychomotor seizure model of partial epilepsy; assay type: in vivo, mice; set-up: concentration or dose not given beside the values
# Description: Compounds can also be evaluated for the protection against seizures induced by a 6 Hz, 0.2 ms rectangular pulse width of 3 s duration, at a stimulus intensity of 32 mA (CC97) applied to the cornea of male CF1 mice (20-30 g) according to procedures described by Barton et al, “Pharmacological Characterization of the 6 Hz Psychomotor Seizure Model of Partial Epilepsy,” Epilepsy Res. 47(3):217-27 (2001). Seizures are characterised by the expression of one or more of the following behaviours: stun, forelimb clonus, twitching of the vibrissae and Straub-tail immediately following electrical stimulation.
# T1 sequence (O95180 whole entry): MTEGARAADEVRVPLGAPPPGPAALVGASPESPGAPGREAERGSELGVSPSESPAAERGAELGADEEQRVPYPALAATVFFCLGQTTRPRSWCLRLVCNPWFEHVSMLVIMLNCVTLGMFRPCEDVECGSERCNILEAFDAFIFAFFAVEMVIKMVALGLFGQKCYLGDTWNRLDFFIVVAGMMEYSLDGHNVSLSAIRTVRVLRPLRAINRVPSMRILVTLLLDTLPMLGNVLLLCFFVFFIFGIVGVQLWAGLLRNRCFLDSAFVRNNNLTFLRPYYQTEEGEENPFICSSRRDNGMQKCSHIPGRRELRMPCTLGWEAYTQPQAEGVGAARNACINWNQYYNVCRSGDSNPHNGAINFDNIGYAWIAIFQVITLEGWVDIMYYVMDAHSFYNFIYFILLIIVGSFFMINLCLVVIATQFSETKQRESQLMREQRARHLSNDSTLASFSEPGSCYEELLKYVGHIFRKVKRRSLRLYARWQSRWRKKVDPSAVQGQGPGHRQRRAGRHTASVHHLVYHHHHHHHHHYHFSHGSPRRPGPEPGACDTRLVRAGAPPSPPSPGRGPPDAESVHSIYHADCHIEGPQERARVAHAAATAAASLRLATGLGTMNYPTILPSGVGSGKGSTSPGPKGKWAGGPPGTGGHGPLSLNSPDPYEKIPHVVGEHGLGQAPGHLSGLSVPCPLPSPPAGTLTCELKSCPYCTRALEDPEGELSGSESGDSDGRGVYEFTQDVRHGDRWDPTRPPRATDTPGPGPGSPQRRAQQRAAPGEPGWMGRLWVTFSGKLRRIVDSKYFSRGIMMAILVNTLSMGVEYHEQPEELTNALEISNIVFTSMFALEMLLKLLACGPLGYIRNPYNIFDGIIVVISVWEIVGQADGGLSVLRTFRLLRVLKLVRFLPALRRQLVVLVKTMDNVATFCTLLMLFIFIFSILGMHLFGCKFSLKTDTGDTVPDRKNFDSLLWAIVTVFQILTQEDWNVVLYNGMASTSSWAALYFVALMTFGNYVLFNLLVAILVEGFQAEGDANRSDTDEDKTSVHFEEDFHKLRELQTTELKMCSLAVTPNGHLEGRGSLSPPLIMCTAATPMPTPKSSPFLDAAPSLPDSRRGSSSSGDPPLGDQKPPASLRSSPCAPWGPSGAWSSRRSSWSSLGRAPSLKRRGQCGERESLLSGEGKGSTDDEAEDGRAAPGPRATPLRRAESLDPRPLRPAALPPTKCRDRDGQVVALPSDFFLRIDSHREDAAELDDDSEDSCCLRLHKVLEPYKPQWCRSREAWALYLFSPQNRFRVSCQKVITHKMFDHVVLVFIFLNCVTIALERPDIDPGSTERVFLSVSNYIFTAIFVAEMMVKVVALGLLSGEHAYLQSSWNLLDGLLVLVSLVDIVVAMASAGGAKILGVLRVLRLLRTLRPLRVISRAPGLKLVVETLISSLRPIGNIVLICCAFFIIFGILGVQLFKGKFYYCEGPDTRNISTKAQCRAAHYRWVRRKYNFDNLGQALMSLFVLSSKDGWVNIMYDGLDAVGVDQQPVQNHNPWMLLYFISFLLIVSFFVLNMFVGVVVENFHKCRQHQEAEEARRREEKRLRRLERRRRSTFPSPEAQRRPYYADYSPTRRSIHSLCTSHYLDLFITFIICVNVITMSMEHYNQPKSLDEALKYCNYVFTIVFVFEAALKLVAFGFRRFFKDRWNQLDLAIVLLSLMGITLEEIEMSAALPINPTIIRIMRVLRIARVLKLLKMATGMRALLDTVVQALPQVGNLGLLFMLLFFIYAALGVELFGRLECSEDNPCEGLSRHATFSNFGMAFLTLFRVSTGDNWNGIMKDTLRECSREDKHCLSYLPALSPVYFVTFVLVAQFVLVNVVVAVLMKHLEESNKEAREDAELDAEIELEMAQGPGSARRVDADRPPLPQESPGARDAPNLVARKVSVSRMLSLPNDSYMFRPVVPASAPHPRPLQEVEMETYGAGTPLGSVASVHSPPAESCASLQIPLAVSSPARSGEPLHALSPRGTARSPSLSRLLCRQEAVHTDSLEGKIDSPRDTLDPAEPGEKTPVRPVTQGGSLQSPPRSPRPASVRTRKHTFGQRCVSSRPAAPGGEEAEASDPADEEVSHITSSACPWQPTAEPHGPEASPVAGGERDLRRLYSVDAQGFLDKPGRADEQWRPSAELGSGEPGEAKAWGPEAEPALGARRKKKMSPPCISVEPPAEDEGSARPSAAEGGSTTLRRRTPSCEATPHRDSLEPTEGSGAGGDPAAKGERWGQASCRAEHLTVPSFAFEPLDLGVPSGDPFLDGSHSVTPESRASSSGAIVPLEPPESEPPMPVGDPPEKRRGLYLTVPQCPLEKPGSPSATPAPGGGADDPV
compound,measurement,setting,value
"N[C@H]1CCCC[C@H]1C(=O)N1CCC(CC(=O)Nc2cc(C(F)(F)F)cc(C(F)(F)F)c2)CC1 (racemic) [Compound 5, cis-2-(1-(2-aminocyclohexanecarbonyl)piperidin-4-yl)-N-(3,5-bis(trifluoromethyl)phenyl)acetamide]",IC50,α1H (CaV 3.2),100 nM
same,IC50,α1G (CaV 3.1),> 10000 nM
"N[C@H]1CCCC[C@@H]1C(=O)N1CCC(CC(=O)Nc2ccc(F)cc2)CC1 (racemic) [Compound 11, trans-2-(1-(2-aminocyclohexanecarbonyl)piperidin-4-yl)-N-(4-fluorophenyl)acetamide]",IC50,α1H (CaV 3.2),> 10000 nM
"N[C@H]1CCCC[C@@H]1C(=O)N1CCC(CC(=O)Nc2cccc(C(F)(F)F)c2)CC1 (racemic) [Compound 13, trans-2-(1-(2-aminocyclohexanecarbonyl)piperidin-4-yl)-N-(3-(trifluoromethyl)phenyl)acetamide]",IC50,α1H (CaV 3.2),2670 nM
same,IC50,α1G (CaV 3.1),> 10000 nM
"N[C@H]1CCCC[C@@H]1C(=O)N1CCC(CC(=O)Nc2cc(F)c(F)cc2F)CC1 (racemic) [Compound 14, trans-2-(1-(2-aminocyclohexanecarbonyl)piperidin-4-yl)-N-(2,4,5-trifluorophenyl)acetamide]",IC50,α1H (CaV 3.2),> 10000 nM
"N[C@H]1CCCC[C@@H]1C(=O)N1CCC(CC(=O)Nc2cc(Cl)cc(Cl)c2)CC1 (racemic) [Compound 17, trans-2-(1-(2-aminocyclohexanecarbonyl)piperidin-4-yl)-N-(3,5-dichlorophenyl)acetamide]",IC50,α1H (CaV 3.2),690 nM
same,IC50,α1G (CaV 3.1),> 10000 nM
"N[C@H]1CCCC[C@@H]1C(=O)N1CCC(CC(=O)Nc2ccc(OC(F)(F)F)cc2)CC1 (racemic) [Compound 18, trans-2-(1-(2-aminocyclohexanecarbonyl)piperidin-4-yl)-N-(4-(trifluoromethoxy)phenyl)acetamide]",IC50,α1H (CaV 3.2),2730 nM
"N[C@H]1CCCC[C@@H]1C(=O)N1CCC(CC(=O)Nc2cc(Br)cc(C(F)(F)F)c2)CC1 (racemic) [Compound 19, trans-2-(1-(2-aminocyclohexanecarbonyl)piperidin-4-yl)-N-(3-bromo-5-(trifluoromethyl)phenyl)acetamide]",IC50,α1H (CaV 3.2),280 nM
same,IC50,α1G (CaV 3.1),> 10000 nM
N[C@H]1CCCC[C@H]1C(=O)N1CCC(CNC(=O)c2cc(C(F)(F)F)cc(C(F)(F)F)c2)CC1 (racemic) [Compound 49],IC50,α1H (CaV 3.2),1930 nM
"N[C@@H]1CCCC[C@@H]1C(=O)N1CCC(O)(CC(=O)Nc2cc(C(F)(F)F)cc(C(F)(F)F)c2)CC1 (racemic) [Compound 52, cis-2-(1-(2-aminocyclohexanecarbonyl)-4-hydroxypiperidin-4-yl)-N-(3,5-bis(trifluoromethyl)phenyl)acetamide]",IC50,α1H (CaV 3.2),820 nM
N[C@@H]1CCCC[C@H]1C(=O)N1CCC(CNC(=O)Nc2cc(C(F)(F)F)cc(C(F)(F)F)c2)CC1 (racemic) [Compound 57],IC50,α1H (CaV 3.2),250 nM
N[C@@H]1CCCC[C@@H]1C(=O)N1CCC(CNC(=O)Nc2cc(C(F)(F)F)cc(C(F)(F)F)c2)CC1 (racemic) [Compound 58],IC50,α1H (CaV 3.2),250 nM
"N[C@@H]1CCCC[C@H]1C(=O)N1CCC(NC(=O)Nc2cc(C(F)(F)F)cc(C(F)(F)F)c2)CC1 (racemic) [Compound 62, trans-2-(1-(2-aminocyclohexanecarbonyl)piperidin-4-yl)-3-(3,5-bis(trifiuoromethyl)phenyl)urea]",IC50,α1H (CaV 3.2),270 nM
"N[C@@H]1CCCC[C@@H]1C(=O)N1CCC(NC(=O)Nc2cc(C(F)(F)F)cc(C(F)(F)F)c2)CC1 (racemic) [Compound 63, cis-2-(1-(2-aminocyclohexanecarbonyl)piperidin-4-yl)-3-(3,5-bis(trifluoromethyl)phenyl)urea]",IC50,α1H (CaV 3.2),430 nM
"N[C@@H]1CCCC[C@H]1C(=O)N1CCC(O)(CC(=O)Nc2cc(C(F)(F)F)cc(C(F)(F)F)c2)CC1 (relative stereo) [Compound 51, trans-2-(1-(2-aminocyclohexanecarbonyl)-4-hydroxypiperidin-4-yl)-N-(3,5-bis(trifluoromethyl)phenyl)acetamide]",IC50,α1H (CaV 3.2),490 nM
"O=C(CC1(O)CCN(C(=O)[C@@H]2CCCCN2)CC1)Nc1cc(C(F)(F)F)cc(C(F)(F)F)c1 [Compound 50, (S)-N-(3,5-bis(trifluoromethyl)phenyl)-2-(4-hydroxy-1-(piperidine-2-carbonyl)piperidin-4-yl)acetamide]",IC50,α1H (CaV 3.2),520 nM
"O=C(CC1(O)CCN(C(=O)[C@H]2CCCCN2)CC1)Nc1cc(C(F)(F)F)cc(C(F)(F)F)c1 [Compound 53, (R)-N-(3,5-bis(trifluoromethyl)phenyl)-2-(4-hydroxy-1-(piperidine-2-carbonyl)piperidin-4-yl)acetamide]",IC50,α1H (CaV 3.2),1860 nM
"NC1(CC(=O)N2CCC(CNC(=O)Nc3cc(C(F)(F)F)cc(C(F)(F)F)c3)CC2)CCCCC1 [Compound 59, 1-((1-(2-(1-aminocyclohexyl)acetyl)piperidin-4-yl)methyl)-3-(3,5-bis(trifluoromethyl)phenyl)urea]",Rotarod Assay (% impaired),[1]; 0.25 hr,0%
same,Rotarod Assay (% impaired),[1]; 0.5 hr,25%
same,Rotarod Assay (% impaired),[1]; 1 hr,75%
same,Rotarod Assay (% impaired),[1]; 2 hr,100%
same,Rotarod Assay (% impaired),[1]; 4 hr,100%
same,Epilepsy 6 Hz (% Protected),6 Hz psychomotor seizure; 0.25 hr,25%
same,Epilepsy 6 Hz (% Protected),6 Hz psychomotor seizure; 0.5 hr,50%
same,Epilepsy 6 Hz (% Protected),6 Hz psychomotor seizure; 1 hr,100%
same,IC50,α1H (CaV 3.2),30 nM
"O=C(Nc1cc(C(F)(F)F)cc(C(F)(F)F)c1)NC1CCN(C(=O)[C@@H]2CCCCN2)CC1 [Compound 60, (S)-1-(3,5-bis(trifluoromethyl)phenyl)-3-(1-(piperidine-2-carbonyl)piperidin-4-yl)urea]",IC50,α1H (CaV 3.2),950 nM
"O=C(Nc1cc(C(F)(F)F)cc(C(F)(F)F)c1)NC1CCN(C(=O)[C@H]2CCCCN2)CC1 [Compound 61, (R)-1-(3,5-bis(trifluoromethyl)phenyl)-3-(1-(piperidine-2-carbonyl)piperidin-4-yl)urea]",IC50,α1H (CaV 3.2),690 nM
"NC1(CC(=O)N2CCC(NC(=O)Nc3cc(C(F)(F)F)cc(C(F)(F)F)c3)CC2)CCCCC1 [Compound 64, 1-(1-(2-(1-aminocyclohexyl)acetyl)piperidin-4-yl)-3-(3,5-bis(trifluoromethyl)phenyl)urea]",IC50,α1H (CaV 3.2),360 nM
CC1(CC(=O)Nc2cc(C(F)(F)F)cc(C(F)(F)F)c2)CCN(C(=O)[C@H]2CCCCN2)CC1 [Compound 68],Epilepsy 6 Hz (% Protected),6 Hz psychomotor seizure; 0.25 hr,50%
same,Epilepsy 6 Hz (% Protected),6 Hz psychomotor seizure; 0.5 hr,75%
same,Epilepsy 6 Hz (% Protected),6 Hz psychomotor seizure; 1 hr,100%
same,Epilepsy 6 Hz (% Protected),6 Hz psychomotor seizure; 2 hr,50%
same,Epilepsy 6 Hz (% Protected),6 Hz psychomotor seizure; 4 hr,0%
O=C(Nc1cc(C(F)(F)F)cc(C(F)(F)F)c1)OCC1CCN(C(=O)[C@H]2CCCCN2)CC1 [Compound 69],Rotarod Assay (% impaired),[1]; 0.25 hr,0%
same,Rotarod Assay (% impaired),[1]; 0.5 hr,50%
same,Rotarod Assay (% impaired),[1]; 1 hr,50%
same,Rotarod Assay (% impaired),[1]; 2 hr,100%
same,Rotarod Assay (% impaired),[1]; 4 hr,100%
same,Epilepsy 6 Hz (% Protected),6 Hz psychomotor seizure; 0.25 hr,75%
same,Epilepsy 6 Hz (% Protected),6 Hz psychomotor seizure; 0.5 hr,75%
same,Epilepsy 6 Hz (% Protected),6 Hz psychomotor seizure; 1 hr,50%
same,Epilepsy 6 Hz (% Protected),6 Hz psychomotor seizure; 2 hr,100%
same,Epilepsy 6 Hz (% Protected),6 Hz psychomotor seizure; 4 hr,33%
N[C@@H]1CCCC[C@@H]1C(=O)N1CCC(CC(=O)Nc2cc(C(F)(F)F)cc(C(F)(F)F)c2)CC1 [Compound 73],Rotarod Assay (% impaired),[1]; 0.25 hr,100%
same,Rotarod Assay (% impaired),[1]; 0.5 hr,100%
same,Rotarod Assay (% impaired),[1]; 1 hr,100%
same,Rotarod Assay (% impaired),[1]; 2 hr,100%
same,Rotarod Assay (% impaired),[1]; 4 hr,75%
same,Epilepsy 6 Hz (% Protected),6 Hz psychomotor seizure; 0.25 hr,100%
same,Epilepsy 6 Hz (% Protected),6 Hz psychomotor seizure; 0.5 hr,100%
same,Epilepsy 6 Hz (% Protected),6 Hz psychomotor seizure; 1 hr,100%
same,Epilepsy 6 Hz (% Protected),6 Hz psychomotor seizure; 4 hr,100%
